Experimental data taken from patent US7732401B2, “Inhibitor of TGF-β activation reaction” (Riken, priority 2007, dated 2010).
Where no end group is shown, it is not given here.

What was measured:
[1] = test system: TGF-β1; assay: Amount of TGF-β1 in hepatic tissues of LPS-preadministered partially-hepatectomized mice (ELISA); assay type: in vivo, mouse; conditions: 200 μg/head i.v.; for Hepatic TGF-β1 Contents: Table 3
Description: A liver extract was prepared from approximately 100 mg of the hepatic tissues prepared for the use in protein quantitation in 11.2 above, according to the method of Okuno M. et al. (Okuno M. et al., Gastroenterology 2001; 120: 1784-1800). The amount of TGF-β1 in the extract was quantitated using an ELISA kit manufactured by PROMEGA. The quantitated TGF-β1 amount was presented as a pg/mg of protein.
A liver extract was prepared from approximately 30 mg of the hepatic tissues prepared for the use in protein quantitation in 11.2 above, according to the method of Okuno M. et al. (Okuno M. et al., Gastroenterology 2001; 120: 1784-1800). The amount of TGF-β1 in the extract was determined using an ELISA kit manufactured by PROMEGA. The amount of TGF-β1 was presented as a pg/mg protein of the sample. Other conditions were the same as those described in Example 2.

[2] = test system: endotoxin (LPS)-preadministered partially-hepatectomized mice; assay: LPS-preadministered partially-hepatectomized mice model for impaired liver regeneration, PCNA staining; assay type: in vivo, mouse; conditions: Example 5, 200 μg/head i.v., 8 times; for percentage of PCNA positive cells: 48 hours after PH, FIG. 10; for improvement of impaired liver regeneration caused by preadministration of LPS: PCNA staining, FIG. 9
Description: For the experiment, 26 five-week-old male C3H/HeN mice were used. After completion of quarantine and environmental acclimatization, the mice were divided into the following 5 groups according to the body weight of each mouse on the day of grouping. These include, a group to which saline was preadministered and saline was then administered (G1: n=6); a group to which LPS was preadministered and saline was then administered (G2: n=6); a group to which LPS was preadministered and QP peptide was then administered (G3: n=4); a group to which LPS was preadministered and QPA peptide was then administered (G4: n=4); and a group to which LPS was preadministered and T200 peptide was then administered (G5: n=6) (Table 2).
After starting the test, 7 μg of LPS (saline in the case of G1) was intraperitoneally administered. Forty-eight hours later, partial hepatectomy was carried out on all the mice. Another forty-eight hours later, all the surviving mice were subjected to an autopsy. In the autopsy, blood was collected. Thereafter, 1 to 3 mice from each group were subjected to systemic perfusion with 4% paraformaldehyde (PFA), and the liver was then excised. All the excised lobes were embedded in an embedding agent “Tissue Mount” in a frozen state. On the other hand, the remaining 1 to 3 mice from each group were not subjected to systemic perfusion, and a portion of the liver was fixed with formalin, and the remaining portion was collected to be used as a frozen sample (used for mRNA and for protein quantitation). The organ that had been fixed with formalin was processed into a block, and it was then preserved together with the frozen sample in a deep freezer at −80° C.
Preparation method: A small amount of saline was added to one vial container that contained 5 mg of LPS, and it was then dissolved therein. Subsequently, the resultant solution was transferred into another container, and saline was then gradually added thereto to a total amount of 5 mL. The thus obtained solution was defined as a 1 μg/μL solution. 350 μL was collected from the obtained solution by precise weighing, and it was then added to a container that contained 4.65 mL of a sterilized normal saline solution (solvent). Thereafter, the mixed solution was filtrated and sterilized using a 0.22-μm filter, and the resultant was used as a sample to be administered. 7.2 LPS Administration Method Dose: 7 μg/head Administration route: intraperitoneal administration Administration volume: 0.1 mL/head Administration number: once (single administration) Administration timing: 48 hours before partial hepatectomy Target animal: G2 to G5 (To G1, saline was administered.) 8. Administration of Test Substance 8.1 Preparation of Peptide-Administering Sample Preparation frequency: once Preparation method: A peptide was dissolved in saline to a concentration of 2 mg/ml, and the resultant was used as a sample to be administered. Preservation method: The sample was preserved in a refrigerator before use. (The temperature was set at 4° C.) 8.2 Peptide Administration Method Dose: 200 μg/head Administration route: intravenous administration Administration volume: 0.11 mL/head Administration timing: 50, 38, 24, 14 and 2 hours before, and 10, 24 and 34 after partial hepatectomy Number of administration: twice/day, for 4 days (in principle, at 9:00 and at 19:00), 8 times in total Target animal: […] (To G1 and G2, saline was administered.) 9. Partial Hepatectomy (⅔ Partial Hepatectomy; PH) 9.1 Treating Method
Using a rotary microtome (Leica), a hepatic tissue section with a thickness of 5 μm was prepared from the embedded hepatic tissues. A proliferating cell nuclear antigen (PCNA; a proliferating cell marker) was stained according to the previously reported method (Greenwell A. et al., Cancer Lett 1991; 59: 251-256) using a Histofine kit (Nichirei Corporation). […]

Row | Substance | hepatic contents of TGF-β1, times higher than the value of the control group ([1]; Example 2, LPS + PH) | Hepatic TGF-β1 Contents ([1]; Example 2, LPS + PH) | hepatic contents of TGF-β1, times higher than the value of the control group ([1]; Example 5, LPS + PH, FIG. 11) | percentage of PCNA positive cells [2] | improvement of impaired liver regeneration caused by preadministration of LPS [2]
1 | TGVVRQWLSRG [T200 peptide, reference compound] | approximately 3 times | 20 ± 26 pg/mg protein | 3.1 times | 45% | did not exhibit such an improving effect
2 | N-52QILSAAAAASP62-C (QILSAAALASP) [QPA peptide, mutant of QP peptide with Lys56, Leu57, Arg58 and Leu59 substituted with Ala] | approximately 1.4 times | 10 ± 11 pg/mg protein | ~0.7 times | 70% | significantly improved
3 | N-52QILSQQQQASP62-C [QPQ peptide, mutant of QP peptide with Lys56, Leu57, Arg58 and Leu59 substituted with Gln] |  |  | approximately 1.6 times | 64% | significantly improved
4 | QILSKLRLASP [QP peptide] |  |  | approximately 1.6 times | 66% | significantly improved
